# How the values were obtained:
# [1] = target: EGFR (Human), P00533 [T790M/L858R]; test: Enzyme Assay
# [2] = target: EGFR (human), P00533 [L858R]; test: Enzyme Assay
# [3] = target: EGFR (human), P00533 [WT]
# EGFR (human), P00533 [WT], sequence (P00533 whole entry, looked up): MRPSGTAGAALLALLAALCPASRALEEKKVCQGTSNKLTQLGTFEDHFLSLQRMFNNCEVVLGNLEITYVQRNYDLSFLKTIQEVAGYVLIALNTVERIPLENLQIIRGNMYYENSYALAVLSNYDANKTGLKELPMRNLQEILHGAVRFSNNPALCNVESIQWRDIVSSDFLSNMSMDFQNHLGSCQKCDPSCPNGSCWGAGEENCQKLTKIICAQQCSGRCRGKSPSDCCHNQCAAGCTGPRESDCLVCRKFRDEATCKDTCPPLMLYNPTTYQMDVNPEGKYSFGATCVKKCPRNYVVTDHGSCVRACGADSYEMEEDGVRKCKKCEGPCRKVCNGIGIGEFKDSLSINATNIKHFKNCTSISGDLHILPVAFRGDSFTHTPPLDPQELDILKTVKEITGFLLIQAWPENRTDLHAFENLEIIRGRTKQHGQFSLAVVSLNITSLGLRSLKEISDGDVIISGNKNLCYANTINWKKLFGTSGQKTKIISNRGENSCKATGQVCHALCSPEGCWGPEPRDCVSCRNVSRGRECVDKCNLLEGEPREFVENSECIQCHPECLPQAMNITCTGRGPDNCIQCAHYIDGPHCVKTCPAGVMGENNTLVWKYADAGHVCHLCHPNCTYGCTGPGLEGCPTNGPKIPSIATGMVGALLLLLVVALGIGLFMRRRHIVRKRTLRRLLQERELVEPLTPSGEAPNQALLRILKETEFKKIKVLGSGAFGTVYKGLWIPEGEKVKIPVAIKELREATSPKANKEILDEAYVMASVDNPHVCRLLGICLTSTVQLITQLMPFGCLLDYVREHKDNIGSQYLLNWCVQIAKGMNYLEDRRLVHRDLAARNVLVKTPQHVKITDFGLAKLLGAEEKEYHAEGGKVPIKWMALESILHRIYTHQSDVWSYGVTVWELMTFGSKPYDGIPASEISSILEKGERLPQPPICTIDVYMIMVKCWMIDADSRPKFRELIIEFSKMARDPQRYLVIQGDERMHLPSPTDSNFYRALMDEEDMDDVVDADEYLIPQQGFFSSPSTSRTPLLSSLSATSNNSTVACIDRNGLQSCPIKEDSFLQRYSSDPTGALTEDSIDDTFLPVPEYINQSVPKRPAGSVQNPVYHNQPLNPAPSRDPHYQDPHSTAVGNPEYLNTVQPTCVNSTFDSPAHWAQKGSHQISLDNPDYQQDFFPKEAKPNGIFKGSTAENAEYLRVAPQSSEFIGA
# EGFR (human), P00533 [L858R], sequence (P00533 whole entry L858R, looked up): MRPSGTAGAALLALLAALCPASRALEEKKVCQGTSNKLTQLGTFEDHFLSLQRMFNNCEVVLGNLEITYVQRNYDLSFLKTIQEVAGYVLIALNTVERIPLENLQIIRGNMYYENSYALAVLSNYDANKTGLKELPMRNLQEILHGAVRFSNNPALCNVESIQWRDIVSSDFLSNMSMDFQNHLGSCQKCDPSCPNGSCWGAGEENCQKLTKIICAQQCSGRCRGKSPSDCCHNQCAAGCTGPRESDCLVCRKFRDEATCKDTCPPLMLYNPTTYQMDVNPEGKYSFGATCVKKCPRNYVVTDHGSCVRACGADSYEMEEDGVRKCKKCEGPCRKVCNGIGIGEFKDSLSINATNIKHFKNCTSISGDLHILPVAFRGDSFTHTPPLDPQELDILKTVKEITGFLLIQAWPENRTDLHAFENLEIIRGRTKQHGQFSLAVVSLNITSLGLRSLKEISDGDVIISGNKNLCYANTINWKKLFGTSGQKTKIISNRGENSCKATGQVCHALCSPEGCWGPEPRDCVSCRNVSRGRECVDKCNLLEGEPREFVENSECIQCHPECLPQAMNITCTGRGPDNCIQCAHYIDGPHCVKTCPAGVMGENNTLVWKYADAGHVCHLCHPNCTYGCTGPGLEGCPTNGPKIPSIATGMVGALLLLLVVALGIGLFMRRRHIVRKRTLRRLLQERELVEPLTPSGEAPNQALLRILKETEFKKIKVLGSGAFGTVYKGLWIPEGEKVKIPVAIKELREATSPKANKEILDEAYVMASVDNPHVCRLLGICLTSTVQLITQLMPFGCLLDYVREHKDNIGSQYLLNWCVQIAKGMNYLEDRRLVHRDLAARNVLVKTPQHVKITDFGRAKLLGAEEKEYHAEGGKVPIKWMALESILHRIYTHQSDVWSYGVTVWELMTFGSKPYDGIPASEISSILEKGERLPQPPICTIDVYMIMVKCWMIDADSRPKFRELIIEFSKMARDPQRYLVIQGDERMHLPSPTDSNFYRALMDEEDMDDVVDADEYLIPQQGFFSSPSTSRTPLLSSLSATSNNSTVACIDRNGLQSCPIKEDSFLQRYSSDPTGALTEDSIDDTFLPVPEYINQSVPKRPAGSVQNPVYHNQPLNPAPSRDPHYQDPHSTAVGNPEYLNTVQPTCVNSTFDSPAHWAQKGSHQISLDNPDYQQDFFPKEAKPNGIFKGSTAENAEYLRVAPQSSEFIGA
# EGFR (Human), P00533 [T790M/L858R], sequence (P00533 whole entry T790M/L858R, looked up): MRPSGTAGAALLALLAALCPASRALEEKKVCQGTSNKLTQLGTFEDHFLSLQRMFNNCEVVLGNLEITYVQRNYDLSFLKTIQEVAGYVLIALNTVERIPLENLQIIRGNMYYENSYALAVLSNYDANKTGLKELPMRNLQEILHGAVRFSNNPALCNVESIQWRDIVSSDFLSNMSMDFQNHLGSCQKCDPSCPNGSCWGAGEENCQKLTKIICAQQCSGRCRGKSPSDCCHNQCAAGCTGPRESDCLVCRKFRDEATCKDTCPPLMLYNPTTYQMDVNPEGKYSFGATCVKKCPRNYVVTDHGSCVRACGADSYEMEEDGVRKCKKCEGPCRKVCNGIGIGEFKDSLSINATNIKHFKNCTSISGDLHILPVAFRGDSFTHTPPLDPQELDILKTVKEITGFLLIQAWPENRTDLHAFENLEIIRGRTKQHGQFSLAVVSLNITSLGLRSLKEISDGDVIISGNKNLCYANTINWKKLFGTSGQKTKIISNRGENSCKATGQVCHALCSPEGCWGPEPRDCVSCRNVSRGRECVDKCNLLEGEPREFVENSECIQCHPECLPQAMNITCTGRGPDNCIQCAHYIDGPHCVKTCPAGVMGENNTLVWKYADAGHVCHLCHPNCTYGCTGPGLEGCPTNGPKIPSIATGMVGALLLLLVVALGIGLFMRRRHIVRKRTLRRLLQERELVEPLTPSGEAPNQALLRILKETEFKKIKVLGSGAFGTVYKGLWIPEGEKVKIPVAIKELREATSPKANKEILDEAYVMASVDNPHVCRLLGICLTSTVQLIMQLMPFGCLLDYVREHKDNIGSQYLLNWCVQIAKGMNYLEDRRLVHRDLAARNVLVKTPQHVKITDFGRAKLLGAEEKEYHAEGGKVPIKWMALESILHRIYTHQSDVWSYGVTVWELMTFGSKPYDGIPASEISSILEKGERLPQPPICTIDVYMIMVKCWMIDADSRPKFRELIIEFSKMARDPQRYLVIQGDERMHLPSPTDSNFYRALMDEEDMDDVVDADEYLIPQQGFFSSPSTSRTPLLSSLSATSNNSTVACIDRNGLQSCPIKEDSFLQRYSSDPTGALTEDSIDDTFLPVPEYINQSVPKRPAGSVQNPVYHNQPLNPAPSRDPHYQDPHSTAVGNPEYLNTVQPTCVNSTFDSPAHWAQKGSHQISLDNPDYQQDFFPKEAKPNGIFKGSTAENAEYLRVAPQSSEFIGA
SMILES,IC50 [1] [nM],IC50 [2] [nM],IC50 [3] [nM]
CN(C)C1CCN(Cc2ccc(C(=O)N[C@@H]3[C@H]4Oc5ccc(Oc6ccnc7c6CCC(=O)N7)cc5[C@@H]34)cc2C(F)(F)F)CC1,0.42,0.27,
Cc1cc(C(=O)N[C@@H]2[C@H]3Oc4ccc(Oc5ccnc6c5CCC(=O)N6)cc4[C@@H]23)ccc1CN1CCN(C)CC1,3.1,0.5,1.5
CCCCCCCCCCCC(=O)N[C@@H]1[C@H]2Oc3ccc(Oc4ccnc5c4CCC(=O)N5)cc3[C@@H]12,,,8.9
O=C1CCc2c(Oc3ccc4c(c3)[C@H]3[C@H](NC(=O)c5ccc(CN6CCN(CCO)CC6)c(C(F)(F)F)c5)[C@H]3O4)ccnc2N1,0.76,0.26,

# The remaining molecules from weak to strong by IC50 [1], led by results:
IC50 [1] [nM],IC50 [2] [nM],IC50 [3] [nM],SMILES
1140,68,,O=C(C=Cc1cccc(C(F)(F)F)c1)N[C@@H]1[C@H]2Oc3ccc(Oc4ccnc5c4CCC(=O)N5)cc3[C@@H]12
32,12,,CN1CCN(CCOc2ccc(C(=O)N[C@@H]3[C@H]4Oc5ccc(Oc6ccnc7c6CCC(=O)N7)cc5[C@@H]34)cc2C(F)(F)F)CC1
3.1,0.67,,CN(C)[C@@H]1CCN(Cc2ccc(C(=O)N[C@@H]3[C@H]4Oc5ccc(Oc6ccnc7c6CCC(=O)N7)cc5[C@@H]34)cc2C(F)(F)F)C1
0.49,0.29,,CN1CCN(Cc2ccc(C(=O)N[C@@H]3[C@H]4Oc5ccc(Oc6ccnc7c6COC(=O)N7)cc5[C@@H]34)cc2C(F)(F)F)CC1
0.3,0.3,,CN(C)[C@H]1CCN(Cc2ccc(C(=O)N[C@@H]3[C@H]4Oc5ccc(Oc6ccnc7c6CCC(=O)N7)cc5[C@@H]34)cc2C(F)(F)F)C1

# Reference: the Kinase Knowledgebase extract (Sharma et al. 2016)
